Measured values taken from PubChem BioAssay AID1963844 (Molecular Pharmacology Branch, DTP, NCI, 2024).
pIC50: −log10 of the molar value.

Tested on: 422866-222-R5-J1-PDC complex spheroid viability
Assay: Anticancer human tumor 422866-222-R5-J1-PDC patient-derived pancreatic adenocarcinoma cell line growth inhibition [POLQ]
Details: for pIC50: curve of first compound; for viability, T/C: stronger effect = lower value
Method in brief: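 Complex spheroid viability model combining PDC tumour cells with endothelial (HUVEC) and MSC stromal cells. Novobiocin, ART-558 or RP6685 were tested singly and in combination with standard and investigational anticancer drugs. Each was titrated in half-log steps from near clinical Cmax, or from 10 microM where Cmax was unknown.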

[1] = second compound 0.0316 µM, first compound 0.0316 µM
[2] = second compound 0.0316 µM, first compound 0.1 µM
[3] = second compound 0.0316 µM, first compound 0.316 µM
[4] = second compound 0.0316 µM, first compound 1 µM
[5] = second compound 0.0316 µM, first compound 3.16 µM
[6] = second compound 0.0316 µM, first compound 10 µM
[7] = second compound 0.1 µM, first compound 0.0316 µM
[8] = second compound 0.1 µM, first compound 0.1 µM
[9] = second compound 0.1 µM, first compound 0.316 µM
[10] = second compound 0.1 µM, first compound 1 µM
[11] = second compound 0.1 µM, first compound 3.16 µM
[12] = second compound 0.1 µM, first compound 10 µM
[13] = second compound 0.316 µM, first compound 0.0316 µM
[14] = second compound 0.316 µM, first compound 0.1 µM
[15] = second compound 0.316 µM, first compound 0.316 µM
[16] = second compound 0.316 µM, first compound 1 µM
[17] = second compound 0.316 µM, first compound 3.16 µM
[18] = second compound 0.316 µM, first compound 10 µM
[19] = second compound 1 µM, first compound 0.0316 µM
[20] = second compound 1 µM, first compound 0.1 µM
[21] = second compound 1 µM, first compound 0.316 µM
[22] = second compound 1 µM, first compound 1 µM
[23] = second compound 1 µM, first compound 3.16 µM
[24] = second compound 1 µM, first compound 10 µM
[25] = second compound 3.16 µM, first compound 0.0316 µM
[26] = second compound 3.16 µM, first compound 0.1 µM
[27] = second compound 3.16 µM, first compound 0.316 µM
[28] = second compound 3.16 µM, first compound 1 µM
[29] = second compound 3.16 µM, first compound 3.16 µM
[30] = second compound 3.16 µM, first compound 10 µM
[31] = second compound 10 µM, first compound 0.0316 µM
[32] = second compound 10 µM, first compound 0.1 µM
[33] = second compound 10 µM, first compound 0.316 µM
[34] = second compound 10 µM, first compound 1 µM
[35] = second compound 10 µM, first compound 3.16 µM
[36] = second compound 10 µM, first compound 10 µM
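Further: spheroids exposed to compounds for one week before readout.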
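Wherever viability, T/C is given: percent of DMSO vehicle wells luminescence so 100% = untreated viability.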

In the case of CC(C)n1c(=O)n(C)c2cnc3cc(F)c(-c4ccc(OCCCN5CCCCC5)nc4)cc3c21 + Cc1cccc(N(C)C(=O)C2C(O)CCN2c2nc(C)cc(C(F)(F)F)c2C#N)c1, the pIC50 (second compound 0.0316 µM) was less than 5.00, the pIC50 (second compound 0.1 µM) was less than 5.00 and the pIC50 (second compound 0.316 µM) was less than 5.00. For the same molecule, the pIC50 (second compound 1 µM) was less than 5.00, the pIC50 (second compound 3.16 µM) was less than 5.00 and the pIC50 (second compound 10 µM) was less than 5.00. For the same molecule, the viability, T/C [1] was 105%, the viability, T/C [2] was 101% and the viability, T/C [3] was 105%. It also gave a viability, T/C [4] of 124%, a viability, T/C [5] of 106% and a viability, T/C [6] of 64.9%. The viability, T/C [7] was 91.6%, the viability, T/C [8] was 108% and the viability, T/C [9] was 106%. For the same molecule, the viability, T/C [10] was 115%, the viability, T/C [11] was 96.3% and the viability, T/C [12] was 60.4%. The viability, T/C [13] was 117%, the viability, T/C [14] was 101% and the viability, T/C [15] was 104%. It also gave a viability, T/C [16] of 114%, a viability, T/C [17] of 79.5% and a viability, T/C [18] of 67%. The viability, T/C [19] was 100%, the viability, T/C [20] was 112% and the viability, T/C [21] was 96.2%. The viability, T/C [22] was 111%, the viability, T/C [23] was 98% and the viability, T/C [24] was 59.5%. It also gave a viability, T/C [25] of 115%, a viability, T/C [26] of 115% and a viability, T/C [27] of 96.9%. The viability, T/C [28] was 118%, the viability, T/C [29] was 79.9% and the viability, T/C [30] was 66.9%. For the same molecule, the viability, T/C [31] was 115%, the viability, T/C [32] was 90.5% and the viability, T/C [33] was 94.5%. It also gave a viability, T/C [34] of 90.7%, a viability, T/C [35] of 80.5% and a viability, T/C [36] of 60.3%.
COc1cccc2c1C(=O)c1c(O)c3c(c(O)c1C2=O)CC(O)(C(=O)CO)CC3OC1CC(N)C(O)C(C)O1 (centres undefined) + Nc1ccc(C#CCN(C(=O)Cc2ncc(C(F)(F)F)cc2C(F)(F)F)c2ccc(F)cc2)nn1 showed a pIC50 (second compound 0.0316 µM) of 7.18, a pIC50 (second compound 0.1 µM) of 6.93 and a pIC50 (second compound 0.316 µM) of 7.17. It also gave a pIC50 (second compound 1 µM) of 7.09, a pIC50 (second compound 3.16 µM) of 7.03 and a pIC50 (second compound 10 µM) of 6.85. It also gave a viability, T/C [1] of 60%, a viability, T/C [2] of 44.3% and a viability, T/C [3] of 32.5%. For the same molecule, the viability, T/C [4] was 30.2%, the viability, T/C [5] was 34.6% and the viability, T/C [6] was 28.3%. It also gave a viability, T/C [7] of 52.7%, a viability, T/C [8] of 54.3% and a viability, T/C [9] of 28.9%. It also gave a viability, T/C [10] of 33.3%, a viability, T/C [11] of 29.6% and a viability, T/C [12] of 27.2%. For the same molecule, the viability, T/C [13] was 58.4%, the viability, T/C [14] was 45.2% and the viability, T/C [15] was 35.1%. For the same molecule, the viability, T/C [16] was 24.8%, the viability, T/C [17] was 28.6% and the viability, T/C [18] was 26.6%. For the same molecule, the viability, T/C [19] was 59.2%, the viability, T/C [20] was 47.7% and the viability, T/C [21] was 34.4%. For the same molecule, the viability, T/C [22] was 26.4%, the viability, T/C [23] was 28.6% and the viability, T/C [24] was 30.8%. The viability, T/C [25] was 57.7%, the viability, T/C [26] was 49.3% and the viability, T/C [27] was 31.5%. For the same molecule, the viability, T/C [28] was 23%, the viability, T/C [29] was 36% and the viability, T/C [30] was 24.5%. It also gave a viability, T/C [31] of 54.4%, a viability, T/C [32] of 55.5% and a viability, T/C [33] of 38.7%. It also gave a viability, T/C [34] of 22.6%, a viability, T/C [35] of 32.8% and a viability, T/C [36] of 30.5%.
